Results: PubChem BioAssay (NCI)
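Cells were grown in 96-well plates and exposed to each compound for 48 hours at five concentrations; endpoints were interpolated linearly between bracketing concentrations, or set to the highest concentration if not reached. Here, GI50 denotes the concentration required for 50% inhibition of growth. TGI denotes the concentration required for complete inhibition of growth.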

Legend:
Experiment in all cases: NCI anticancer screen, dose series, 48 h
HCC-2998 colon = test system: HCC-2998 colon
NCI-H226 lung = test system: NCI-H226 lung
PC-3 prostate = test system: PC-3 prostate
SF-268 CNS = test system: SF-268 CNS
SF-295 CNS = test system: SF-295 CNS
SK-OV-3 ovarian = test system: SK-OV-3 ovarian
SN12C renal = test system: SN12C renal
SNB-19 CNS = test system: SNB-19 CNS
T-47D breast = test system: T-47D breast
UACC-62 melanoma = test system: UACC-62 melanoma

SMILES | GI50 (HCC-2998 colon) [nM] | TGI (HCC-2998 colon) [µM] | GI50 (NCI-H226 lung) [µM] | TGI (NCI-H226 lung) [µM] | GI50 (PC-3 prostate) [µM] | TGI (PC-3 prostate) [µM] | GI50 (SF-268 CNS) [µM] | TGI (SF-268 CNS) [µM] | GI50 (SF-295 CNS) [µM] | TGI (SF-295 CNS) [µM] | GI50 (SK-OV-3 ovarian) [nM] | TGI (SK-OV-3 ovarian) [µM] | GI50 (SN12C renal) [µM] | TGI (SN12C renal) [µM] | GI50 (SNB-19 CNS) [µM] | TGI (SNB-19 CNS) [µM] | GI50 (T-47D breast) [µM] | TGI (T-47D breast) [µM] | GI50 (UACC-62 melanoma) [µM] | TGI (UACC-62 melanoma) [µM]
O=c1[nH]c(-c2ccc(Cl)c(Cl)c2)cn1-c1ccc(Cl)cc1 | 25200 | 87.9 | 22.9 | 54.1 | 66.9 | > 100 | 21.6 | 59.3 | 25 | 64 | 19900 | 41.7 | 26.7 | > 100 | 30.1 | 81.2 | 25.5 | 84.5 | 26.2 | 78.3
COc1cc2c(/C=C3\C(=O)N(C)c4ccccc43)c[nH]c2cc1C | 1790 | > 68.3 | 20.3 | > 58.1 | 2.56 | > 100 | 0.103 | > 43.9 | 0.374 | 15.6 | 8350 | > 100 | 2 | > 73.5 | 4.15 | > 100 | > 39.3 | > 100 | 1.29 | > 100
COc1ccc(-c2cnc(-c3ccc(OC)cc3)n2-c2cc(OC)c(OC)c(OC)c2)cc1 | 45700 | > 100 | 36.7 | > 100 | 29.4 | > 100 | 30.6 | > 100 | 22.1 | 61.1 | 23100 | 72.3 | 20.8 | 56.7 | 19.8 | 60.5 | 39.4 | > 100 | 17.3 | 45
COc1ccc(C)c2sc(N(Cc3cccnc3)C(=O)c3ccc(C#N)cc3)nc12 | 46600 | > 100 | 54.4 | > 100 | 30.2 | > 100 | 58.7 | > 100 | 51.8 | > 100 | > 100000 | > 100 | 44.2 | > 100 | 94.7 | > 100 | 26.1 | > 100 | 31.1 | > 100
NC(=O)c1cn(C2CC(O)C(CO)O2)c2ncnc(N)c12 (stereo not given) | 1470 | 5.62 | 3.19 | 17.4 | 1.57 | > 35.4 | 6.17 | > 76.9 | 12.6 | > 76.6 | 1680 | 43 | 1.56 | 31.1 | 7 | 45.5 | 0.0549 | 1.82 | 2.39 | 23
O=Cc1ccc(-c2ccc(-c3nc4ccccc4s3)cc2)o1 | > 100000 | > 100 | 5.03 | > 100 | 45.2 | > 100 | 72.6 | > 100 | 41.7 | > 100 | > 100000 | > 100 | > 100 | > 100 | > 100 | > 100 | > 100 | > 100 | > 100 | > 100
CC1(C)C(=O)/C=C\C(=O)C(C)(C)C2=CC=C(O2)C(C)(C)C(=O)C(Br)C(Br)C(=O)C(C)(C)C2=CC=C1O2 (stereo not given) |  | > 100 |  | > 100 |  | > 100 |  | > 100 |  | > 100 |  | > 100 |  | > 100 |  | > 100 |  | > 100 |  | 49.3
Cc1cc(-c2nc3sc(C)cn3c2/C=N/N=C(N)N)c(C)s1 | 1730 | 3.24 | 20.8 | 40.8 | 3.65 | 15.5 | 13.6 | 28.9 | 1.78 | 3.85 | 20900 | 39.1 | 14 | 28.3 | 18.2 | 36.2 | 3.56 | 13.8 | 16.5 | 30.5
O=C1CN=C(c2ccc[nH]2)c2cc(Cl)ccc2N1 | > 100000 | > 100 | > 100 | > 100 | 93.4 | > 100 | > 100 | > 100 | > 100 | > 100 | > 100000 | > 100 | > 100 | > 100 | > 100 | > 100 | > 100 | > 100 | 95 | > 100
CN1CCc2ccccc2C1Cc1ccccc1NC(=O)c1sc2ccccc2c1Cl (stereo not given) |  | > 100 |  | > 100 |  | > 100 |  | > 100 |  | > 100 |  | > 100 |  | > 100 |  | > 100 |  | > 100 |  | > 100
COc1ccc(OC)c(N2CC(O)=C(c3nc4ccccc4s3)C2=N)c1 | 32500 | > 100 | 56.9 | > 100 | 52.5 | > 100 | > 100 | > 100 | 60.9 | > 100 | > 100000 | > 100 | 58 | > 100 | > 100 | > 100 | > 100 | > 100 | 26.4 | > 100
OCc1ccc(-c2nc(-c3ccc4c(c3)OCO4)c(-c3ccccn3)[nH]2)cc1 | > 25000 | > 25 | > 25 | > 25 | > 25 | > 25 | > 25 | > 25 | > 25 | > 25 | > 25000 | > 25 | > 25 | > 25 | > 25 | > 25 | > 23.2 | > 25 | > 25 | > 25
CC(C)(C)c1cc(C[P+](c2ccccc2)(c2ccccc2)c2ccccc2)cc(C(C)(C)C)c1O | 491 | 10.2 | 1.45 | 18.3 | 0.278 | 1.91 | 0.429 | 15 | 0.547 | 6.79 | 1440 | 6.7 | 0.404 | 2.31 | 0.354 | 13.8 | 0.2 | 1.01 | 0.365 | 1.66
CCOC(=O)c1c(NN2CCN(CC(F)(F)F)CC2)oc(/C=C2\C=Nc3ncccc32)c1O | 2700 | 12.6 | 1.73 | 27 | 4.04 | 21.4 | 3.04 | 16.1 | 8.47 | 37.4 | 2930 | 19.8 | 4.26 | 42.6 | 20.7 | > 100 | 5.08 | 34.8 | 4.83 | 15.1
Nc1nc(Sc2ccc([N+](=O)[O-])c3nonc23)c2ncn(C3OC(CO)C(O)C3O)c2n1 (stereo not given) | 777 | 3.49 | 2.2 | 29 | 3.24 | 26.6 | 0.938 | 21.3 | 1.95 | > 100 | 651 | 14.5 | 1.48 | 21.8 | > 63.5 | > 100 | 1.07 | > 49.5 | 0.478 | 3.59
CCn1nc(C2CCN(C(=O)CCO)CC2)nc1-c1cnc(N)c(-c2nnc(C(C)(C)C)o2)n1 | 10700 | > 100 | 25.8 | > 100 | 3.2 | > 100 | 23.1 | > 100 | 3.27 | > 100 | 286 | 2.74 | 6.34 | > 100 | > 100 | > 100 | 0.0731 | 0.57 | 2.07 | > 100
COc1cc(OC)c(C(=O)/C=C/c2ccc(C#N)cc2)c(OC)c1 | 1900 | 6.51 | 2.67 | > 50 | 1.72 | 6.87 | 1.97 | 46.5 | 1.72 | 8.81 | 2050 | > 50 | 1.82 | 7.91 | 1.84 | 6.87 | 1.21 | 7.81 | 1.45 | 5.78
O=C(Nc1ccc(I)cc1F)c1cc(Br)ccc1O | 2770 | 10.7 | 1.28 | 4.41 | 1.77 | 7.13 | 0.498 | 8.07 | 1.73 | 3.39 | 681 | 2.92 | 0.416 | 4.09 | 0.41 | > 100 | 0.353 | 2.54 | 0.25 | 0.812
